Here are results for nine compounds from ChEMBL document CHEMBL1123880, “Beta-adrenoceptor antagonist activity of bivalent ligands. 1. Diamide analogues of practolol” (J Med Chem, 1987).

Assay [1] addresses Beta-2 adrenergic receptor (Rattus norvegicus) (UniProt P10608). The settings on record: Lung, Membrane.
Description: Apparent dissociation constant towards beta-2 adrenergic receptor in rat lung membranes using (2-6)x10E-9M of [3AH]-DHA in the presence or absence of 10e-5 M (+/-) propranolol.
For assay [2], the species on record is Rattus norvegicus. As to the kind of experiment: Ratio of dissociation constant KD' of rat lung to KD' of rat heart. The assay is classed as tissue-based.
In assay [3] the target is Beta-1 adrenergic receptor (Rattus norvegicus) (UniProt P18090). To be noted: Heart, Membrane.
Beta-1 adrenergic receptor (Rattus norvegicus), sequence (P18090 whole entry, looked up): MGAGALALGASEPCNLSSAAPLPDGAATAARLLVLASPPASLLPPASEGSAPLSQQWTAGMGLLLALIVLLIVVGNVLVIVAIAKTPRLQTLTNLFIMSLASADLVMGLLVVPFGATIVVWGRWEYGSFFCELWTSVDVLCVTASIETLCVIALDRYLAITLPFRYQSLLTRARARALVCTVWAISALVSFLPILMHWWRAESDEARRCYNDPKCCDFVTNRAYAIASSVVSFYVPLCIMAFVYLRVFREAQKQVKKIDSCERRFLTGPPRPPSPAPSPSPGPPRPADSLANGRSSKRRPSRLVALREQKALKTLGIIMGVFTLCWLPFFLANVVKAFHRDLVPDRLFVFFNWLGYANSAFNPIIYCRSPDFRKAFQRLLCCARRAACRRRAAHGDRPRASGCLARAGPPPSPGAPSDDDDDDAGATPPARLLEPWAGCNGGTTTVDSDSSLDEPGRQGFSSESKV
Description: Apparent dissociation constant towards beta-1 adrenergic receptor in rat heart membranes using (2-6)x10E-9M of [3AH]-DHA in the presence or absence of 10e-5 M (+/-) propranolol.

Beta-2 adrenergic receptor (Rattus norvegicus), sequence (P10608 whole entry, looked up): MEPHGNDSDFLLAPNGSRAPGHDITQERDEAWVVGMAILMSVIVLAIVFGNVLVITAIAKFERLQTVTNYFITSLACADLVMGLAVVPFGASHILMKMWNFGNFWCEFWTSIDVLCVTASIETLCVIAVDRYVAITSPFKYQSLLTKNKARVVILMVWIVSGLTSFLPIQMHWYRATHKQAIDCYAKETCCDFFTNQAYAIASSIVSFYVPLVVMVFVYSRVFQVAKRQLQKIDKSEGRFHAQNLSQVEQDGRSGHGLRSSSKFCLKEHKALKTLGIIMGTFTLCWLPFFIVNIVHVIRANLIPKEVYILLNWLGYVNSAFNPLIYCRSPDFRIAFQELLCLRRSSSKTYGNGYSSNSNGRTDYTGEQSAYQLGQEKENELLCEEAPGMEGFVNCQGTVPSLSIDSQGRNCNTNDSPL

With `CC(C)NCC(O)COc1ccc(NC(=O)CCCCCCC(=O)Nc2ccc(OCC(O)CNC(C)C)cc2)cc1` (configuration not stated), the KD' in assay [1] was 3.9 µM; in assay [3], 4.4 µM. Further, the Ratio in assay [2] amounted to 0.9.

Turning to `CC(C)NCC(O)COc1ccc(NC(=O)CNCCCCCCNCC(=O)Nc2ccc(OCC(O)CNC(C)C)cc2)cc1` (configuration not stated), the KD' worked out at 28.1 µM in assay [1] and 5 µM in assay [3]. The Ratio in assay [2] turned out to be 5.6.

On to `CC(C)NCC(O)COc1ccc(NC(=O)CNCCCCCCCCNCC(=O)Nc2ccc(OCC(O)CNC(C)C)cc2)cc1` (configuration not stated), for which the KD' in assay [1] came out at 3.9 µM; in assay [3], 0.5 µM. In addition, in assay [2], the Ratio amounted to 7.8.

Regarding `CC(C)NCC(O)COc1ccc(NC(=O)CN2CCN(CC(=O)Nc3ccc(OCC(O)CNC(C)C)cc3)CC2)cc1` (configuration not stated), the figures for the KD' in assay [1] and in assay [3] were 28.1 µM and 2.1 µM, respectively. For the same compound, the Ratio in assay [2] was found to be 13.4.

For the compound `CC(=O)Nc1ccc(OCC(O)CNC(C)C)cc1` (configuration not stated), the KD' was determined as 36.5 µM in assay [1] and 6.2 µM in assay [3]. Besides, the Ratio in assay [2] amounted to 5.9.

With `CC(C)NCC(O)COc1ccc(NC(=O)CCCCC(=O)Nc2ccc(OCC(O)CNC(C)C)cc2)cc1` (configuration not stated), the KD' in assay [1] stood at 67.5 µM; in assay [3], 9 µM. Also, the Ratio in assay [2] stood at 7.5.

Regarding `CC(C)NCC(O)COc1ccc(NC(=O)CCCCCCCCC(=O)Nc2ccc(OCC(O)CNC(C)C)cc2)cc1` (configuration not stated), the KD' in assay [1] worked out at 1.4 µM; in assay [3], 0.1 µM. The Ratio in assay [2] worked out at 14.

As to `CC(C)NCC(O)COc1ccc(NC(=O)CNCCCCNCC(=O)Nc2ccc(OCC(O)CNC(C)C)cc2)cc1` (configuration not stated), the KD' in assay [1] was 186 µM; in assay [3], 32.2 µM. In assay [2], the Ratio was found to be 5.8.

For `CC(C)NCC(O)COc1ccc(NC(=O)CCC(=O)Nc2ccc(OCC(O)CNC(C)C)cc2)cc1` (configuration not stated), the KD' in assay [1] came out at 28.1 µM; in assay [3], 16.3 µM. In addition, in assay [2], the Ratio stood at 1.7.
